In patent publication US7452388B2, “Compositions comprising dimeric or oligomeric ferrocenes” (Innospec Limited, priority 2000, dated 2008):
Read-outs that look alike come from different tables or passages of the source.

Columns and labels:
[1] = Solubility testing in toluene at −30° C.
Source text: Solubility testing was undertaken using the estimate of Fe content from C/H/N analysis. […] This procedure assumes the products below to contain substantially only C, H and Fe. Masses of product(s) sufficient to provide the required concentration of iron as condensation products were weighed into screw-cap vials and made up to 10.00 g with toluene. The samples were capped, shaken or swirled until homogenous then sealed using Parafilm™. The vials were then kept in an ethylene glycol/water filled bath held at −30° C. and periodically inspected for the appearance of solids or separation of liquid phases. After at least one week solids were separated by rapid filtration and soluble products isolated by removal of solvent under vacuum. Following analysis of the solids, maximum and minimum solubilities were estimated from the mass balance.

[2] = Viscosity of 2.5 wt % iron solutions in toluene (Bohlin CVO rheometer); format: physicochemical; conditions: toluene solution at 2.5 wt % Fe
Experimental: Viscosities of 2.5 wt % iron solutions were determined using a Bohlin Instruments CVO rheometer using a 4° 40 mm cone and plate at shear rates of either 2 Pa or 0.5 Pa.

[3] = Fuel stability, in-house Test Method 1; conditions: additive 20 ppm iron
[4] = toluene, −30° C., at least one week

| Compound | Solubility at −30° C., 2.5 wt % Fe (appearance) [1] | Solubility at −30° C., 5.0 wt % Fe (appearance) [1] | Viscosity at −30° C. (mPas) [2] | Solubility at −30° C., 2.5 wt % Fe (appearance) [1, 4] | also measured |
| --- | --- | --- | --- | --- | --- |
| 1,1-diferrocenyl 2-ethylhexane [Compound 4] | Clear | Clear | – | – | – |
| 1,1-diferrocenyl cyclohexane [Compound 11] | – | – | 4.8 mPas | Clear | Solubility of Fe as product ([1]; toluene, −30° C.): ~4.9 wt %; Solubility at −30° C., 5.0 wt % Fe (appearance) [1, 4]: Powder |
| 1,1-diferrocenylpentane [Compound 7] | Clear | Clear | 5.4 mPas | – | – |
| CC(C)C([c-]1cccc1)[c-]1cccc1.[Fe+2].[Fe+2].c1cc[cH-]c1.c1cc[cH-]c1 [Compound 5, 1,1-diferrocenyl-2-methyl propane] | – | – | – | Clear | – |
| [Fe+2].[Fe+2].c1cc[cH-]c1.c1cc[cH-]c1.c1ccc(CC([c-]2cccc2)[c-]2cccc2)cc1 [Compound 9, 1,1-diferrocenyl phenyl methane] | – | – | 4.3 mPas | Clear | Solubility at −30° C., 5.0 wt % Fe (appearance) [1, 4]: Clear |
| O=C1CCCC(=O)C1 [Compound 12, 1,3-Cyclohexanedione] | Clear | Crystals | – | – | Solubility of Fe as product [1]: 3.6 to 4.1 wt % by mass balance |
| CC(=O)CCC(C)=O [Compound 15, Acetonyl acetone] | Powder | Powder | – | – | – |
| Iron tris(2-ethylhexanoate) [Octanoate] | – | – | – | – | fuel stability (conclusion) [3]: markedly lower stability |
